Earlier results as cited in patent US10780114B2, “Therapeutic agent for skin wound or rough skin” (JFE MINERAL COMPANY, LTD., priority 2015, dated 2020).

Key:
skin = conditions: in vivo

- Zinc ion level leading to increased inflammatory cell infiltration in skin and remarkably delayed reepithelization (skin): not less than 15 mmol/L
Structure (SMILES): [Zn+2] [zinc ions]
- Zinc ion concentration that does not exhibit toxicity to a fibroblast (fibroblast): not more than 500 μmol/L
